Test results published in paper PMC7749613 (Journal of Cachexia, Sarcopenia and Muscle, 2020).
Bridge positions count the residues as written; N and C are the ends. Square brackets hold non-standard residues; d marks the D form. Peptide text beside a SMILES is read from it. d2Nal = N[C@H](Cc1ccc2ccccc2c1)C(=O)O; Nle = CCCC[C@H](N)C(=O)O

Experiments:
[1] = target: T1, OATP1B1 (Homo sapiens, UniProt Q9Y6L6); assay: Inhibition of prototypical substrate (E17βG) uptake by TCMCB07 in HEK293/OATP1B1 cells; assay type: in vitro ADME
T1 construct: host or cells: HEK293
T1 sequence (Q9Y6L6 1-691): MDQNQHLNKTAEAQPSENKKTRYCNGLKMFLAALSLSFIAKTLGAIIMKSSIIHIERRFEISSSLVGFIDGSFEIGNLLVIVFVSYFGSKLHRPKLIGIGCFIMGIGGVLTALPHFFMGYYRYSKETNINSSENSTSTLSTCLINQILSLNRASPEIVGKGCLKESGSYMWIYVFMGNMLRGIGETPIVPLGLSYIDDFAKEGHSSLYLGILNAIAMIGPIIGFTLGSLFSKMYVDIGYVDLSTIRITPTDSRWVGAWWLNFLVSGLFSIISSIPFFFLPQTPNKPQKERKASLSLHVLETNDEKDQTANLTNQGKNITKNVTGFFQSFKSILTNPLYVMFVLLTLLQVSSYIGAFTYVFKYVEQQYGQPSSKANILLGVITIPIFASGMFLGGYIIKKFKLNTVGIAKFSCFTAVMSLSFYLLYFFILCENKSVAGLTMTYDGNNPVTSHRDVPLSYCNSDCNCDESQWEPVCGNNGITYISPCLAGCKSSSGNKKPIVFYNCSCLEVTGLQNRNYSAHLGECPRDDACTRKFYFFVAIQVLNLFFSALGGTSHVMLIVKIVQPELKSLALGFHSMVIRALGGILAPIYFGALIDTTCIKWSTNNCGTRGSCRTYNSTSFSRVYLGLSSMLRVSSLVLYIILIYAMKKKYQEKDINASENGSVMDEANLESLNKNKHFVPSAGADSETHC
Protocol: (§1) Cells were then washed three times × 1.0 mL each with pre‐warmed Hank's Balanced Salt Solution (HBSS) buffer. A 0.5 mL aliquot of uptake buffer [HBSS plus 10 mM 4‐(2‐hydroxyethyl)‐1‐piperazineethanesulfonic acid (HEPES), pH 7.4], containing the radiolabelled prototypical substrate and mannitol, was then incubated for various times up to 60 min to determine the optimal incubation time for subsequent experiments (i.e. time of sampling during linear uptake conditions). At the designated times, 1.0 mL of ice‐cold HBSS buffer was added to stop uptake after which the cells were rinsed three times with 1.0 mL with ice‐cold HBSS. Hyamine hydroxide (0.33 mL) was then added to each well to lyse the cells. The cells were transferred into a scintillation vial and mixed with 6.0 mL of cytosine scintillation cocktail. Radioactivity of the solubilized cells was determined with a dual‐channel liquid scintillation counter (Beckman LS 6000; Beckman Coulter Inc., Fullerton, CA) and the protein quantified by a bicinchoninic acid protein assay kit (Pierce Biotechnology; Rockford, IL).

[2] = target: T2, OATP2B1 (Homo sapiens, UniProt O94956); assay: Inhibition of prototypical substrate (E3S) uptake by TCMCB07 in HEK293/OATP2B1 cells; assay type: in vitro ADME
T2 construct: host or cells: HEK293
T2 sequence (O94956 1-709): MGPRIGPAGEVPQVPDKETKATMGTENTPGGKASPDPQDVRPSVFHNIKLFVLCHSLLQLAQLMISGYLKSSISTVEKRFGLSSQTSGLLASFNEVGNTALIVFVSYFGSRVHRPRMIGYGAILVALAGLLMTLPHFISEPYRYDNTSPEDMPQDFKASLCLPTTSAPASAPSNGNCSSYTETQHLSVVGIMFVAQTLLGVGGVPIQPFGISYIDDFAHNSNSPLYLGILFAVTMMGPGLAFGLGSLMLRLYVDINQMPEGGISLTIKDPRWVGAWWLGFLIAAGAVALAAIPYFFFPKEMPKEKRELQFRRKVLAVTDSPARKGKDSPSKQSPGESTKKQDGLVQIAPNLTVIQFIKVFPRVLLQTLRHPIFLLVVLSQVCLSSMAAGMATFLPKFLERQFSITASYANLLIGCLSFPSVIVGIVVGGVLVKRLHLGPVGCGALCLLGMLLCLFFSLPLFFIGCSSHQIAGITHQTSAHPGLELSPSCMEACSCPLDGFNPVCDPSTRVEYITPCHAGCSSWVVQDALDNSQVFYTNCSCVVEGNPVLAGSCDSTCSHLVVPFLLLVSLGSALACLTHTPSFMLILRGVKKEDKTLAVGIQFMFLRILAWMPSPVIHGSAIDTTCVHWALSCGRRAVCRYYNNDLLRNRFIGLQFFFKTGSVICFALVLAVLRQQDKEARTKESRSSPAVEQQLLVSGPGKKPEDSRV
Protocol: as §1

[3] = target: T3, OCT2 (Homo sapiens, UniProt O15244); assay: Inhibition of prototypical substrate (MPP+) uptake by TCMCB07 in HEK293/OCT2 cells; assay type: in vitro ADME
T3 construct: host or cells: HEK293
T3 sequence (O15244 1-555): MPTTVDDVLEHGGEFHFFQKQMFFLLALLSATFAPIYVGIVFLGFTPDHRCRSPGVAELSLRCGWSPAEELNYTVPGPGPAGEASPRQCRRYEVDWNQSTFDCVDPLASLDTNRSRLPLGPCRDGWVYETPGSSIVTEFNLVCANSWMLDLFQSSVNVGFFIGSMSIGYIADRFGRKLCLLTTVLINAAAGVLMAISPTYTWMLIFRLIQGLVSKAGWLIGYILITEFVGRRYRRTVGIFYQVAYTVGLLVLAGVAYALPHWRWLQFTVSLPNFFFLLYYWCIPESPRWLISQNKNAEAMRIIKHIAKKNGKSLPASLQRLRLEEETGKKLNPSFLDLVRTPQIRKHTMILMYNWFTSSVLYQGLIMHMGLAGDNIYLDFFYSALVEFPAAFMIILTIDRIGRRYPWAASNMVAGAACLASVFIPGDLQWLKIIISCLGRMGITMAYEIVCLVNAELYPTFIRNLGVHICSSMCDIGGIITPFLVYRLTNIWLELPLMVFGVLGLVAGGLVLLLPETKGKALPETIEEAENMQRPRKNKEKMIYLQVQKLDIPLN
Protocol: as §1

[4] = target: T4, OATP1A2 (Homo sapiens, UniProt P46721); assay: Cellular uptake in HEK293/OATP1A2‐transfected versus mock cells
T4 sequence (P46721 1-670): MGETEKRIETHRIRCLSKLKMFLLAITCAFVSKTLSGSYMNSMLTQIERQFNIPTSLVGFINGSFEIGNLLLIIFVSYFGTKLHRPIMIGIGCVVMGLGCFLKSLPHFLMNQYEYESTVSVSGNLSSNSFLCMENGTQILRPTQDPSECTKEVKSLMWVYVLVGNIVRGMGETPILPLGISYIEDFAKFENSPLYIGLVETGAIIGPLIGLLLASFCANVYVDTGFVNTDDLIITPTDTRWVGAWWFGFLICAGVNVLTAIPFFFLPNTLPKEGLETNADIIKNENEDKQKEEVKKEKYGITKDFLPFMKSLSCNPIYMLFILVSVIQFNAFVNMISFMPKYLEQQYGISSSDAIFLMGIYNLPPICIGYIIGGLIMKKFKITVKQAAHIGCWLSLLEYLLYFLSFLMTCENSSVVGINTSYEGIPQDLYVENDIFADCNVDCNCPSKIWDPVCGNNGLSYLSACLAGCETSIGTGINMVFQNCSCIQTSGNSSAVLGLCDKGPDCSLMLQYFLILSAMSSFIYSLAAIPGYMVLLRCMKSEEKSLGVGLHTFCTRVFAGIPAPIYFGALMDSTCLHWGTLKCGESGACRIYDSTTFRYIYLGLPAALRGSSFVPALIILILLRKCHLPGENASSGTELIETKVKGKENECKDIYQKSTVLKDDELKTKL
Protocol: Mock and transfected cells (250 000 cells/well) were seeded onto BioCoat poly‐D‐lysine 24 well plates (Corning Inc.) and cultured for 2 days as described previously for the other OATPs. […] Cells were incubated for various times over 10 min for the uptake studies. Radioactivity and protein measurements were then performed as described previously.
Cellular uptake and transepithelial transport were calculated as described previously by our laboratory. ^16 , ^17 , ^18 , ^19 [^3H]mannitol or [^14C]mannitol was used to correct the uptake of [^14C]substrate or [^3H]substrate, respectively, due to filter binding and extracellular content, as well as the transepithelial transport of substrate due to paracellular flux.
Uptake kinetics in mock cells was evaluated by a linear term: (3) v=Slope·C+Yint, where Slope is the non‐saturable rate constant and Yint is the y‐intercept of the line.

With `CCCC[C@H](NC(C)=O)C(=O)N[C@H]1CC(=O)NCCCC[C@@H](C(=O)N[C@@H](C(=O)N2CCC[C@@H]2C(N)=O)C(C)C)NC(=O)[C@H](Cc2c[nH]c3ccccc23)NC(=O)[C@H](CCCN=C(N)N)NC(=O)[C@@H](Cc2ccc3ccccc3c2)NC(=O)[C@@H]2CCCN2C1=O` [TCMCB07, Ac‐Nle‐c[Asp‐Pro‐dNal2′‐Arg‐Trp‐Lys]‐dVal‐dPro‐NH2] (Ac-[Nle]DP[d2Nal]RWK[dV][dP]-NH2; lactam 2-7) as the compound, how does the IC50 [1] read?
The IC50 was 6.8 ± 1 µM.

And the Slope factor ([1]; slope factor n of Eqn 1, OATP1B1, substrate E17βG)?
The Slope factor was 1.0 ± 0.1.

And the IC50 [2]?
The IC50 was 524 ± 83 µM.

And the IC50 [3]?
Its IC50 is 1170 µM.

What about the “saturable uptake component (V max/K m) as share of total uptake (V max/K m + K d)” value ([4]; OATP1A2‐transfected cells, at low concentrations (<< K m)) of the same compound?
Its value is “over 90%”.

And the “uptake of TCMCB07 in OATP1A2 cells as compared with mock cells” value ([4]; at 5 min)?
The value was 3–4 times greater.
